According to US20130137629A1, “COMBINATION TREATMENT FOR METABOLIC DISORDERS” (WELLSTAT THERAPEUTICS CORPORATION, priority 2006, published 2013):

How the values were obtained:
db/db mice [1] = details: previous studies; cited from earlier work
late-stage db/db mice = assay: Example 1: late-stage db/db mice treated daily for 4 weeks; serum glucose, serum insulin and islet insulin; assay type: in vivo
Method: Serum glucose and insulin and pancreatic insulin were measured.

db/db mice [2] = assay: Example 2: db/db mice with glucose above 400 mg/dL treated for 4 weeks; circulating glucose and pancreatic insulin (ECL assay); assay type: in vivo; details: Compound BI 100 mg/kg by oral gavage, exendin 3 μg/kg or 10 μg/kg i.p.
Method: Peripheral blood glucose levels of db/db mice was monitored. When the glucose levels exceeded 400 mg/dL the mice were divided into groups of 6 mice each. The mice in each group were given either vehicle or Compound BI (100 mg/kg by oral gavage)+/−i.p. injections of exendin-amide (Bachem, King of Prussia, PA) as indicated below for 4 weeks. • 1) Vehicle • 2) Vehicle+Exendin (3 μg/kg) • 3) Vehicle+Exendin (10 μg/kg) • 4) Compound BI • 5) Compound BI+Exendin (3 μg/kg) • 6) Compound BI+Exendin (10 μg/kg)
After four weeks of treatment, the mice were bled via the retroorbital sinus and sera sent to Anilytics, Inc. (Gaithersburg, Md.) for analysis of circulating glucose levels. The pancreata were collected, weighed, flash frozen and then processed for pancreatic insulin assays. Briefly, the pancreas was placed into pancreatic extraction solution (75% ethanol and 25% 0.15N HCl) and the volume adjusted to 1 mL per 100 mg of pancreas. The pancreas was then sonicated and stored at −20° C. overnight. The next day, the samples were centrifuged at 2500 rpm for 5 minutes at 4° C. to pellet unsolubilized material. 1.5 mL of supernatant was placed in an Eppendorf tube and spun in a microcentrifuge at 1300 rpm for 20 minutes at 4° C. to pellet any remaining unsolubilized material. […] The samples were then read on an M384 instrument (BioVeris Corp., Gaithersburg, Md.). […]

db/db mice [3] = assay: Example 5: ten week-old db/db mice, Compound BI +/- P32/98 for 4 weeks; assay type: in vivo; details: Compound BI 100 mg/kg p.o., P32/98 10 mg/kg twice a day by gavage; for Circulating glucose levels: FIG. 11; for Pancreatic insulin: FIG. 12
Method: Ten week-old db/db mice were given vehicle or Compound BI (100 mg/kg, p.o.)+/−P32/98 (10 mg/kg, twice a day by gavage) as indicated for 4 weeks. Assays for circulating glucose and pancreatic insulin were conducted as in Example 3.

[4] = system: streptozotocin-induced diabetes; details: Pospisilik et al., Diabetes 52:741-750, 2003; cited from earlier work

SMILES	Islet insulin content (db/db mice [1])	Serum glucose (late-stage db/db mice; daily for 4 weeks, Compound BI 100 mg/kg/day p.o., Exendin-4 amide 10 microgram/day i.p., FIG. 1)	Islet insulin (late-stage db/db mice; daily for 4 weeks, Compound BI 100 mg/kg/day p.o., Exendin-4 amide 10 microgram/day i.p., FIG. 2)	Serum insulin (late-stage db/db mice; daily for 4 weeks, Compound BI 100 mg/kg/day p.o., Exendin-4 amide 10 microgram/day i.p., FIG. 3)	Insulin resistance (late-stage db/db mice; inferred from glucose lowering without a significant increase in serum insulin, 4 weeks)	Circulating glucose levels (db/db mice [2]; FIG. 4)	Pancreatic insulin (db/db mice [2]; FIG. 5)	Circulating glucose levels (db/db mice [3])	Pancreatic insulin (db/db mice [3])	Activity in streptozotocin-induced diabetes [4]
Cc1cccc(C)c1COc1cccc(C(=O)CCC(=O)O)c1 [Compound BI, 4-(3-(2,6-Dimethylbenzyloxy)phenyl)-4-oxobutyric acid]	preserves islet insulin content	reduced serum glucose substantially	had more insulin than either of those two groups	without a significant increase in serum insulin	reduced insulin resistance	significant reduction in circulating glucose levels	corresponding increase in pancreatic insulin	reduced circulating glucose levels	increased pancreatic insulin levels	
CC[C@H](C)[C@H](N)C(=O)N1CCSC1 [P32/98, reference compound]								slight reduction in circulating glucose levels	no increase in pancreatic insulin	active
